Test results taken from ChEMBL document CHEMBL1909294, “Translating clinical findings into knowledge in drug safety evaluation--drug induced liver injury prediction system (DILIps)” (PLoS Comput Biol, 2011).

Experiments:
[1] = system: Hepatotoxicity;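 on HepSE Combined Scores: combined hepatic side effect score as listed in the training data of the Drug Induced Liver Injury Prediction System (DILIps)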;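 on HepSE bilirubinemia: bilirubinemia hepatic side effect score drawn from the DILIps training data, a prediction system for drug-induced liver injury; call rule not given here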;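 on HepSE cholecystitis: Cholecystitis-related hepatic side effect score drawn from the DILIps (drug-induced liver injury prediction) training data set; call rule not given here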;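 on HepSE cirrhosis: cirrhosis hepatic side effect score taken from the DILIps (drug-induced liver injury prediction) training set; call rule not given here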;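 on HepSE elevated liver function tests: hepatic side effect score for raised liver function tests, as recorded in the DILIps training set used for predicting drug-induced liver injury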; on HepSE hepatic failure: call rule not given here; on HepSE liver disease: call rule not given here;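 on HepSE liver fatty: hepatic side effect score for fatty liver, taken from the DILIps training set for predicting drug-induced liver injury; call rule not given here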
[2] = system: Hepatotoxicity; remark: listed apart in the source;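 on HepSE Combined Scores: combined hepatic side effect score as listed in the training data of the Drug Induced Liver Injury Prediction System (DILIps)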;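 on HepSE cholecystitis: Cholecystitis-related hepatic side effect score drawn from the DILIps (drug-induced liver injury prediction) training data set; call rule not given here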;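 on HepSE cirrhosis: cirrhosis hepatic side effect score taken from the DILIps (drug-induced liver injury prediction) training set; call rule not given here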;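 on HepSE elevated liver function tests: hepatic side effect score for raised liver function tests, as recorded in the DILIps training set used for predicting drug-induced liver injury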; on HepSE hepatic failure: call rule not given here; on HepSE liver disease: call rule not given here;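 on HepSE liver fatty: hepatic side effect score for fatty liver, taken from the DILIps training set for predicting drug-induced liver injury; call rule not given here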
[3] = system: Hepatotoxicity; remark: listed apart in the source;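 on HepSE Combined Scores: combined hepatic side effect score as listed in the training data of the Drug Induced Liver Injury Prediction System (DILIps)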;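 on HepSE cholecystitis: Cholecystitis-related hepatic side effect score drawn from the DILIps (drug-induced liver injury prediction) training data set; call rule not given here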;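 on HepSE cirrhosis: cirrhosis hepatic side effect score taken from the DILIps (drug-induced liver injury prediction) training set; call rule not given here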;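 on HepSE elevated liver function tests: hepatic side effect score for raised liver function tests, as recorded in the DILIps training set used for predicting drug-induced liver injury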; on HepSE hepatic failure: call rule not given here; on HepSE liver disease: call rule not given here;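 on HepSE liver fatty: hepatic side effect score for fatty liver, taken from the DILIps training set for predicting drug-induced liver injury; call rule not given here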
[4] = system: Hepatotoxicity; remark: listed apart in the source;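 on HepSE Combined Scores: combined hepatic side effect score as listed in the training data of the Drug Induced Liver Injury Prediction System (DILIps)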;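 on HepSE cholecystitis: Cholecystitis-related hepatic side effect score drawn from the DILIps (drug-induced liver injury prediction) training data set; call rule not given here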;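 on HepSE cirrhosis: cirrhosis hepatic side effect score taken from the DILIps (drug-induced liver injury prediction) training set; call rule not given here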;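 on HepSE elevated liver function tests: hepatic side effect score for raised liver function tests, as recorded in the DILIps training set used for predicting drug-induced liver injury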; on HepSE hepatic failure: call rule not given here; on HepSE liver disease: call rule not given here;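 on HepSE liver fatty: hepatic side effect score for fatty liver, taken from the DILIps training set for predicting drug-induced liver injury; call rule not given here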
[5] = system: Hepatotoxicity; remark: listed apart in the source; on HepSE hepatic failure: call rule not given here; on HepSE liver disease: call rule not given here
[6] = system: Hepatotoxicity; remark: listed apart in the source; on HepSE hepatic failure: call rule not given here; on HepSE liver disease: call rule not given here
[7] = system: Hepatotoxicity; remark: listed apart in the source
[8] = system: Hepatotoxicity; remark: listed apart in the source
[9] = system: Hepatotoxicity; remark: listed apart in the source
[10] = system: Hepatotoxicity; remark: listed apart in the source
[11] = system: Hepatotoxicity; remark: listed apart in the source
[12] = system: Hepatotoxicity; remark: listed apart in the source
[13] = system: Hepatotoxicity; remark: listed apart in the source
[14] = system: Hepatotoxicity; remark: listed apart in the source

Structure (SMILES)	HepSE_liver fatty [1]	HepSE_cholecystitis [2]	HepSE_Combined Scores [3]	HepSE_hepatic failure [4]	HepSE_cholelithiasis [5]	HepSE_elevated liver function tests [6]	HepSE_cirrhosis [7]	HepSE_liver disease [8]	HepSE_bilirubinemia [9]	HepSE_jaundice [10]	HepSE_hepatic necrosis [11]	HepSE_hepatomegaly [12]	HepSE_liver function tests abnormal [13]	HepSE_hepatitis [14]	further results
CNCCCC12CCC(c3ccccc31)c1ccccc12 [MAPROTILINE]															HepSE_liver fatty ([1]; Liver): 0; HepSE_cholecystitis ([2]; Liver): 0; HepSE_Combined Scores ([3]; Liver): 1; HepSE_hepatic failure ([4]; Liver): 0; HepSE_cholelithiasis ([5]; Liver): 0; HepSE_elevated liver function tests ([6]; Liver): 0; HepSE_cirrhosis ([7]; Liver): 0; HepSE_liver disease ([8]; Liver): 0; HepSE_bilirubinemia ([9]; Liver): 0; HepSE_jaundice ([10]; Liver): 1; HepSE_hepatic necrosis ([11]; Liver): 0; HepSE_hepatomegaly ([12]; Liver): 0; HepSE_liver function tests abnormal ([13]; Liver): 0; HepSE_hepatitis ([14]; Liver): 0
COC(=O)Nc1nc2ccc(C(=O)c3ccccc3)cc2[nH]1 [MEBENDAZOLE]	0	0	1	0	0	0	0	0	0	0	0	0	0	1	
CNC1(C)C2CCC(C2)C1(C)C (configuration not stated) [MECAMYLAMINE]	0	0	0	0	0	0	0	0	0	0	0	0	0	0	
Cc1cccc(CN2CCN(C(c3ccccc3)c3ccc(Cl)cc3)CC2)c1 (configuration not stated) [MECLIZINE]	0	0	0	0	0	0	0	0	0	0	0	0	0	0	
Cc1ccc(Cl)c(Nc2ccccc2C(=O)O)c1Cl [MECLOFENAMIC ACID]	0	0	1	0	0	0	0	0	0	1	0	0	0	0	
Cc1cccc(Nc2ccccc2C(=O)O)c1C [MEFENAMIC ACID]															HepSE_liver fatty ([1]; Liver): 0; HepSE_cholecystitis ([2]; Liver): 0; HepSE_Combined Scores ([3]; Liver): 3; HepSE_hepatic failure ([4]; Liver): 1; HepSE_cholelithiasis ([5]; Liver): 0; HepSE_elevated liver function tests ([6]; Liver): 0; HepSE_cirrhosis ([7]; Liver): 0; HepSE_liver disease ([8]; Liver): 0; HepSE_bilirubinemia ([9]; Liver): 0; HepSE_jaundice ([10]; Liver): 1; HepSE_hepatic necrosis ([11]; Liver): 0; HepSE_hepatomegaly ([12]; Liver): 0; HepSE_liver function tests abnormal ([13]; Liver): 0; HepSE_hepatitis ([14]; Liver): 1
OC(c1cc(C(F)(F)F)nc2c(C(F)(F)F)cccc12)C1CCCCN1 (configuration not stated) [MEFLOQUINE]	0	0	0	0	0	0	0	0	0	0	0	0	0	0	
CC(=O)O[C@]1(C(C)=O)CC[C@H]2[C@@H]3C=C(C)C4=CC(=O)CC[C@]4(C)[C@H]3CC[C@@]21C [MEGESTROL ACETATE]	0	0	1	0	0	0	0	0	0	0	0	1	0	0	
Cc1cnc(NC(=O)C2=C(O)c3ccccc3S(=O)(=O)N2C)s1 [MELOXICAM]	0	0	4	1	0	0	0	0	1	1	0	0	0	1	
CC12CC3CC(C)(C1)CC(N)(C3)C2 [MEMANTINE]	0	0	3	1	1	0	0	0	0	0	0	0	0	1	
C[N+]1(C)CCCC(OC(=O)C(O)(c2ccccc2)c2ccccc2)C1.[Br-] (configuration not stated) [MEPENZOLATE BROMIDE]	0	0	0	0	0	0	0	0	0	0	0	0	0	0	
CCOC(=O)C1(c2ccccc2)CCN(C)CC1 [MEPERIDINE]	0	0	0	0	0	0	0	0	0	0	0	0	0	0	
CCC1(c2ccccc2)NC(=O)N(C)C1=O (configuration not stated) [MEPHENYTOIN]	0	0	2	0	0	0	0	0	0	1	0	0	0	1	
Cc1cccc(C)c1NC(=O)C1CCCCN1C (configuration not stated) [MEPIVACAINE]	0	0	0	0	0	0	0	0	0	0	0	0	0	0	
CCCC(C)(COC(N)=O)COC(N)=O [MEPROBAMATE]	0	0	0	0	0	0	0	0	0	0	0	0	0	0	
Sc1ncnc2nc[nH]c12 [MERCAPTOPURINE ANHYDROUS]															HepSE_liver fatty ([1]; Liver): 0; HepSE_cholecystitis ([2]; Liver): 0; HepSE_Combined Scores ([3]; Liver): 0; HepSE_hepatic failure ([4]; Liver): 0; HepSE_cholelithiasis ([5]; Liver): 0; HepSE_elevated liver function tests ([6]; Liver): 0; HepSE_cirrhosis ([7]; Liver): 0; HepSE_liver disease ([8]; Liver): 0; HepSE_bilirubinemia ([9]; Liver): 0; HepSE_jaundice ([10]; Liver): 0; HepSE_hepatic necrosis ([11]; Liver): 0; HepSE_hepatomegaly ([12]; Liver): 0; HepSE_liver function tests abnormal ([13]; Liver): 0; HepSE_hepatitis ([14]; Liver): 0
C[C@@H](O)[C@H]1C(=O)N2C(C(=O)O)=C(S[C@@H]3CN[C@H](C(=O)N(C)C)C3)[C@H](C)[C@H]12 [MEROPENEM]	0	0	3	1	0	0	0	0	0	1	0	0	0	1	
Nc1ccc(O)c(C(=O)O)c1 [MESALAMINE]	0	1	8	1	1	1	1	0	0	1	1	0	0	1	
